The values below come from article PMC5007854, “β-Nitrostyrenes as Potential Anti-leishmanial Agents” (Frontiers in Microbiology, 2016).

In general, MIC refers to the smallest concentration in the dilution series that meets the test's criterion for growth inhibition. Usually MBC stands for the lowest tested concentration that kills the bacteria rather than only halting them. The MFC is the smallest concentration meeting the test's criterion for killing the fungus. As usually defined, the melting point is the temperature of the solid-liquid transition. By IC50 is commonly meant the point on the concentration scale where inhibition reaches its midpoint.

≈ marks a conversion by molar mass, not a printed value. Where two headings read alike, the source gives them in different places.

Data set [1] has as its system Staphylococcus epidermidis ATCC 14990. As to the kind of experiment: Broth microdilution antibacterial susceptibility (MIC/MBC). It counts as cell-based. The note with it: for MIC / MBC: Staphylococcus epidermidis; for MIC: ATCC14990, 24 h. An outline of the steps: (§1)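 CLSI broth microdilution: Ca/Mg-supplemented Mueller-Hinton for bacteria (~5 × 10^5 CFU/mL, 24 h), MOPS-buffered RPMI 1640 pH 7.0 for fungi (Candida ~2.5 × 10^4, Aspergillus 0.4-5 × 10^4 CFU/mL, 48 h), 35°C, 1% DMSO, 64 to 0.12 μg/mL. MIC read visually; MBC/MFC by plating clear wells.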

The test system of data set [2] is Staphylococcus aureus ATCC 29213. Described as above. Format: cell-based. The settings on record: for MIC / MBC: Staphylococcus aureus; for MIC: ATCC29213, 24 h. The method in brief:
as §1

The subject of data set [3] is Escherichia coli ATCC 25922. The data set is described as above. The note with it: for MIC / MBC: Escherichia coli; for MIC: ATCC25922, 24 h. Format: cell-based. An outline of the steps:
as §1

The subject of data set [4] is Pseudomonas aeruginosa ATCC 27853. The data set is described as above. Format: cell-based. The settings on record: for MIC / MBC: Pseudomonas aeruginosa; for MIC: ATCC27853, 24 h. The method in brief: as §1
For data set [5], the system named is L. donovani promastigotes. As to the kind of experiment: Anti-leishmanial screening at 100 μM, parasite viability by microscopy. Format: cell-based, Leishmania donovani. The note with it: 100 μM, 72 h, phase contrast microscope. The method, then:
(§2) L. donovani parasites (MHOM/IN/83/AG83) were maintained in vivo in BALB/c mice. Promastigotes were routinely cultured at 22°C in medium M199 supplemented with 10% heat inactivated fetal bovine serum (FBS, HiMedia Laboratories, Mumbai, India), penicillin 100 (IU/ml), streptomycin (100 μg/ml). Log phase promastigotes were sub-cultured every 72–96 h, the inoculum being 2 × 10^6 cells/ml (Afrin et al., [2002]).
Nitrostyrine series were screened for their antileishmanial activity against L. donovani promastigotes in vitro. Promastigotes of L. donovani (2 × 10^6 cells/mL) in M199 medium were incubated at 22°C for 72 h with each compound at a concentration of 100 μM. Amphotericin B (AmB) served as reference drug, 0.2% DMSO was used as solvent control. Parasites with media alone were taken as control. Parasite viability was determined microscopically after 72 h (Islamuddin et al., [2014b]).

For data set [6], the system named is Aspergillus niger ATCC 16404. Description: Broth microdilution antifungal susceptibility (MIC/MFC). Format: cell-based. The settings on record: for MIC / MFC: Aspergillus niger; for MIC: ATCC16404, 48 h. An outline of the steps: as §1
(In general: Dilution methods test growth across graded concentrations, often in twofold steps.)

The test system of data set [7] is Candida glabrata ATCC 90030. Described as above. It counts as cell-based. The settings on record: Nakaseomyces glabratus. The method in brief: as §1
In data set [8] the test system is Aspergillus fumigatus ATCC 16424. Described as above. Format: cell-based. The settings on record: for MIC / MFC: Aspergillus fumigatus; for MIC: ATCC16424, 48 h. An outline of the steps: as §1
For data set [9], the system named is Candida albicans ATCC 90028. Described as above. It counts as cell-based. The note with it: for MIC / MFC: Candida albicans; for MIC: ATCC90028, 48 h. An outline of the steps: as §1
In data set [10] the test system is L. donovani promastigotes. As to the kind of experiment: Dose-dependent anti-promastigote activity, IC50 and IC90. Format: cell-based, Leishmania donovani. The method, then: as §2
AmB was used as a standard antileishmanial drug control. The cell viability was evaluated by microscopically and the mean percentage viability was calculated as follows: Mean cell number of treated parasites / Mean cell number of untreated parasites × 100. The 50 and 90% inhibitory concentration (IC50 and IC90) i.e., the concentration of drugs that decreased the cell growth by 50 and 90% respectively was determined by graphical extrapolation after plotting the graph of % viability vs. concentration of drug (Islamuddin et al., [2014b]).
In vitro antileishmanial activity was expressed as IC50 by linear regression analysis. Values are mean ± SE of samples in triplicate from at least three independent experiments. Statistical analysis was performed using ANOVA followed by Dunnett's test. ^*P < 0.05, ^**P < 0.01 and ^***P < 0.001 compared with the untreated control group were considered significant.

Where [11] appears, read: broth microdilution, 35°C, 24 h.
Where [12] appears, read: broth microdilution, 35°C, 48 h.

In turn, `C/C(=C\c1ccc([N+](=O)[O-])cc1)[N+](=O)[O-]` [Compound 8, 1-nitro-4-((E)-2-nitroprop-1-enyl) benzene] gave a melting point of 114 to 116 °C. In addition, the minimal inhibitory concentration (MIC) in [1] (read-out: MIC, Se ATCC 14990, broth microdilution, 35°C, 24 h) is 16 µg/mL (≈ 76.9 µM). Also, the MBC in data set [1] (ATCC14990, read-out: MBC, Se ATCC 14990) was determined as 16 µg/mL (≈ 76.9 µM). The MIC in data set [2] (read-out: MIC, Sa ATCC 29213, broth microdilution, 35°C, 24 h) turned out to be 16 µg/mL (≈ 76.9 µM). Besides, in data set [2] (ATCC29213, read-out: MBC, Sa ATCC 29213), the MBC was determined as 32 µg/mL (≈ 154 µM). The minimum inhibitory concentration (MIC) in [3] (read-out: MIC, Ec ATCC 25922, broth microdilution, 35°C, 24 h) came to 64 µg/mL (≈ 307 µM). The MBC in data set [3] (ATCC25922, read-out: MBC, Ec ATCC 25922) was more than 64 µg/mL. Also, the MIC in data set [4] (read-out: MIC, Pa ATCC 27853, broth microdilution, 35°C, 24 h) came out at 64 µg/mL (≈ 307 µM). The minimal bactericidal concentration (MBC) in data set [4] (ATCC27853, read-out: MBC, Pa ATCC 27853) is more than 64 µg/mL. Further, the “Parasite viability after treatment” value in [5] is “All the parasites were found to be dead”. Also, the MIC in data set [6] (read-out: MIC, An ATCC 16404, broth microdilution, 35°C, 48 h) is 2 µg/mL (≈ 9.61 µM). In addition, the MFC in [6] (ATCC16404, read-out: MFC, An ATCC 16404) amounted to 2 µg/mL (≈ 9.61 µM). In addition, in [7] (ATCC90030, 48 h, read-out: MIC, Cg ATCC 90030, broth microdilution, 35°C, 48 h), the minimum inhibitory concentration (MIC) came out at 1 µg/mL (≈ 4.8 µM). The MFC in data set [7] (ATCC90030, read-out: MFC, Cg ATCC 90030) turned out to be 1 µg/mL (≈ 4.8 µM). For the same compound, in [8] (read-out: MIC, Af ATCC 16424, broth microdilution, 35°C, 48 h), the MIC came out at 4 µg/mL (≈ 19.2 µM). The minimum fungicidal concentration (MFC) in data set [8] (ATCC16424, read-out: MFC, Af ATCC 16424) came to 4 µg/mL (≈ 19.2 µM). Also, the minimal inhibitory concentration (MIC) in data set [9] (read-out: MIC, Ca ATCC 90028, broth microdilution, 35°C, 48 h) came out at 4 µg/mL (≈ 19.2 µM). The MFC in data set [9] (ATCC90028, read-out: MFC, Ca ATCC 90028) amounted to 4 µg/mL (≈ 19.2 µM).

Compound `C/C(=C\c1ccc(O)cc1)[N+](=O)[O-]` [Compound 17, 4-((E)-2-nitroprop-1-enyl) phenol] registered a melting point of 122 to 124 °C. Moreover, the minimal inhibitory concentration (MIC) in data set [1] (broth microdilution, 35°C, 24 h, read-out: MIC, Se ATCC 14990) was 2 to 16 µg/mL (≈ 11.2 to 89.3 µM). For the same compound, in [1] (ATCC14990, ≥99.9% reduction of original inoculum, read-out: MBC, Se ATCC 14990), the minimal bactericidal concentration (MBC) was 2 µg/mL (≈ 11.2 µM). Further, in data set [1] (setting [11]), the “MIC, Se ATCC 14990” value worked out at 2 µg/mL (≈ 11.2 µM). Further, in data set [2] (broth microdilution, 35°C, 24 h, read-out: MIC, Sa ATCC 29213), the minimal inhibitory concentration (MIC) was in the range of 2 to 32 µg/mL (≈ 11.2 to 179 µM). The MBC in data set [2] (ATCC29213, ≥99.9% reduction of original inoculum, read-out: MBC, Sa ATCC 29213) is 4 µg/mL (≈ 22.3 µM). The “MIC, Sa ATCC 29213” value in data set [2] (setting [11]) was found to be 4 µg/mL (≈ 22.3 µM). In addition, in [3] (broth microdilution, 35°C, 24 h, read-out: MIC, Ec ATCC 25922), the minimal inhibitory concentration (MIC) lay in the range of 16 to 32 µg/mL (≈ 89.3 to 179 µM). The MBC in data set [3] (ATCC25922, ≥99.9% reduction of original inoculum, read-out: MBC, Ec ATCC 25922) worked out at 16 µg/mL (≈ 89.3 µM). For the same compound, in data set [3] (setting [11]), the “MIC, Ec ATCC 25922” value worked out at 16 µg/mL (≈ 89.3 µM). In addition, in data set [4] (broth microdilution, 35°C, 24 h, read-out: MIC, Pa ATCC 27853), the MIC was 16 to 32 µg/mL (≈ 89.3 to 179 µM). Moreover, in data set [4] (ATCC27853, ≥99.9% reduction of original inoculum, read-out: MBC, Pa ATCC 27853), the MBC stood at 32 µg/mL (≈ 179 µM). For the same compound, the “MIC, Pa ATCC 27853” value in data set [4] (setting [11]) was found to be 16 µg/mL (≈ 89.3 µM). Moreover, the “Parasite viability after treatment” value in data set [5] is recorded as “All the parasites were found to be dead”. Besides, the MIC in data set [6] (broth microdilution, 35°C, 48 h, read-out: MIC, An ATCC 16404) lay in the range of 2 to 4 µg/mL (≈ 11.2 to 22.3 µM). Also, the MFC in [6] (ATCC16404, ≥99.9% reduction of original inoculum, read-out: MFC, An ATCC 16404) was found to be 4 µg/mL (≈ 22.3 µM). For the same compound, the “MIC, An ATCC 16404” value in [6] (setting [12]) came to 4 µg/mL (≈ 22.3 µM). Besides, in data set [7] (ATCC90030, ≥99.9% reduction of original inoculum, read-out: MFC, Cg ATCC 90030), the minimum fungicidal concentration (MFC) was 8 µg/mL (≈ 44.6 µM). In addition, the minimal inhibitory concentration (MIC) in [8] (broth microdilution, 35°C, 48 h, read-out: MIC, Af ATCC 16424) is 4 to 8 µg/mL (≈ 22.3 to 44.6 µM). Moreover, the MFC in [8] (ATCC16424, ≥99.9% reduction of original inoculum, read-out: MFC, Af ATCC 16424) came to 8 µg/mL (≈ 44.6 µM). For the same compound, the “MIC, Af ATCC 16424” value in data set [8] (setting [12]) was 8 µg/mL (≈ 44.6 µM). In addition, the MIC in data set [9] (broth microdilution, 35°C, 48 h, read-out: MIC, Ca ATCC 90028) lay in the range of 4 to 32 µg/mL (≈ 22.3 to 179 µM). Moreover, the MFC in data set [9] (ATCC90028, ≥99.9% reduction of original inoculum, read-out: MFC, Ca ATCC 90028) worked out at 8 µg/mL (≈ 44.6 µM). In data set [9] (setting [12]), the “MIC, Ca ATCC 90028” value came to 8 µg/mL (≈ 44.6 µM). Moreover, the “Anti-leishmanial activity, in words (compounds with IC50 determined)” value in [10] (L. donovani promastigotes) was “moderately active”. Further, the IC50 in data set [10] (Leishmania donovani, 72 h, 22°C, values given in μM, read-out: IC50 against promastigotes) is 39.4 ± 1.36 µM.
